{"source": "ChEMBL document CHEMBL4385604", "about": "“Identification of Pyrrolo[2,3- d]pyrimidine-Based Derivatives as Potent and Orally Effective Fms-like Tyrosine Receptor Kinase 3 (FLT3) Inhibitors for Treating Acute Myelogenous Leukemia” (J Med Chem, 2019)", "key": {"[1]": {"test": "Plasma clearance in Sprague-Dawley rat at 5 mg/kg, po by LC-MS/MS analysis", "assay_type": "ADME, organism-based"}, "[2]": {"target": "Receptor-type tyrosine-protein kinase FLT3 (Homo sapiens, UniProt P36888, R834Q)", "test": "Binding affinity to human partial length FLT3 R834Q mutant (V592 to Y969 residues) expressed in HEK293 cells measured after 1 hr by qPCR analysis", "assay_type": "cell-based"}, "[3]": {"tested_on": "Receptor-type tyrosine-protein kinase FLT3 (Homo sapiens), P36888 [UNDEFINED MUTATION]", "test": "Inhibition of FLT3 ITD mutant in human MV4-11 cells assessed as ratio of phosphorylated STAT5 to beta-actin level at 30 nM after 2 hrs by Western blot analysis relative to control", "assay_type": "cell-based"}, "[4]": {"tested_on": "Receptor-type tyrosine-protein kinase FLT3 (Homo sapiens), P36888 [UNDEFINED MUTATION]", "test": "Inhibition of FLT3 ITD mutant in human MV4-11 cells assessed as ratio of phosphorylated STAT5 to beta-actin level at 100 nM after 2 hrs by Western blot analysis relative to control", "assay_type": "cell-based"}, "[5]": {"tested_on": "MV4-11", "test": "Inhibition of MAPK in human MV4-11 cells assessed as ratio of phosphorylated ERK to beta-actin level at 30 nM after 2 hrs by Western blot analysis relative to control", "assay_type": "cell-based"}, "[6]": {"tested_on": "Receptor-type tyrosine-protein kinase FLT3 (Homo sapiens), P36888 [UNDEFINED MUTATION]", "test": "Inhibition of FLT3 ITD mutant in human MOLM13 cells assessed as ratio of phosphorylated STAT5 to beta-actin level at 30 nM after 2 hrs by Western blot analysis relative to control", "assay_type": "cell-based"}, "[7]": {"tested_on": "Receptor-type tyrosine-protein kinase FLT3 (Homo sapiens), P36888 [UNDEFINED MUTATION]", "test": "Inhibition of FLT3 ITD mutant in human MOLM13 cells assessed as ratio of phosphorylated STAT5 to beta-actin level at 100 nM after 2 hrs by Western blot analysis relative to control", "assay_type": "cell-based"}, "[8]": {"tested_on": "MV4-11", "test": "Antitumour activity against human MV4-11 cells xenografted in NOD/SCID mouse assessed as tumour growth inhibition at 1 mg/kg, po qd for 14 days measured every two days during compound dosing by caliper method relative to control", "assay_type": "functional", "details": "MV4-11, po, read-out: TGI"}, "[9]": {"tested_on": "MV4-11", "test": "Antitumour activity against human MV4-11 cells xenografted in NOD/SCID mouse assessed as tumour growth inhibition at 3 mg/kg, po qd for 14 days measured every two days during compound dosing by caliper method relative to control", "assay_type": "functional", "details": "MV4-11, po, read-out: TGI"}, "[10]": {"tested_on": "MOLM-13", "test": "Cell cycle arrest in human MOLM13 cells assessed as accumulation at G0/G1 phase at 1 nM after 24 hrs by propidium iodide staining-based flow cytometric analysis (reference value: 44.53%)", "assay_type": "functional"}, "[11]": {"tested_on": "MOLM-13", "test": "Cell cycle arrest in human MOLM13 cells assessed as accumulation at G0/G1 phase at 10 nM after 24 hrs by propidium iodide staining-based flow cytometric analysis (reference value: 44.53%)", "assay_type": "functional"}, "[12]": {"tested_on": "MV4-11", "test": "Cell cycle arrest in human MV4-11 cells assessed as accumulation at G2/M phase at 1 nM after 24 hrs by propidium iodide staining-based flow cytometric analysis (reference value: 21.12%)", "assay_type": "functional"}, "[13]": {"tested_on": "MV4-11", "test": "Cell cycle arrest in human MV4-11 cells assessed as accumulation at G2/M phase at 10 nM after 24 hrs by propidium iodide staining-based flow cytometric analysis (reference value: 21.12%)", "assay_type": "functional"}, "[14]": {"tested_on": "MV4-11", "test": "Cell cycle arrest in human MV4-11 cells assessed as accumulation at S phase at 1 nM after 24 hrs by propidium iodide staining-based flow cytometric analysis (reference value: 30.12%)", "assay_type": "functional"}, "[15]": {"tested_on": "MOLM-13", "test": "Induction of apoptosis in human MOLM13 cells assessed as viable cells at 1 nM after 48 hrs by Annexin V/propidium iodide staining based flow cytometry (reference value: 88.2%)", "assay_type": "functional", "details": "MOLM-13, 48 h, read-out: Activity"}, "[16]": {"tested_on": "MOLM-13", "test": "Induction of apoptosis in human MOLM13 cells assessed as early apoptotic cells at 1 nM after 48 hrs by Annexin V/propidium iodide staining based flow cytometry (reference value: 5.97%)", "assay_type": "functional"}, "[17]": {"tested_on": "MV4-11", "test": "Cell cycle arrest in human MV4-11 cells assessed as accumulation at G2/M phase at 30 nM after 24 hrs by propidium iodide staining-based flow cytometric analysis (reference value: 21.12%)", "assay_type": "functional"}, "[18]": {"tested_on": "MOLM-13", "test": "Induction of apoptosis in human MOLM13 cells assessed as necrotic cells at 10 nM after 48 hrs by Annexin V/propidium iodide staining based flow cytometry (reference value: 0.29%)", "assay_type": "functional"}, "[19]": {"tested_on": "MOLM-13", "test": "Induction of apoptosis in human MOLM13 cells assessed as late apoptotic cells at 1 uM after 48 hrs by Annexin V/propidium iodide staining based flow cytometry (reference value: 5.52%)", "assay_type": "functional"}, "[20]": {"tested_on": "MV4-11", "test": "Induction of apoptosis in human MV4-11 cells assessed as viable cells at 10 nM after 48 hrs by Annexin V/propidium iodide staining based flow cytometry (reference value: 94.4%)", "assay_type": "functional", "details": "MV4-11, 48 h, read-out: Activity"}, "[21]": {"tested_on": "MV4-11", "test": "Induction of apoptosis in human MV4-11 cells assessed as necrotic cells at 10 nM after 48 hrs by Annexin V/propidium iodide staining based flow cytometry (reference value: 0.06%)", "assay_type": "functional"}, "[22]": {"tested_on": "MV4-11", "test": "Induction of apoptosis in human MV4-11 cells assessed as necrotic cells at 100 nM after 48 hrs by Annexin V/propidium iodide staining based flow cytometry (reference value: 0.06%)", "assay_type": "functional"}, "[23]": {"tested_on": "MV4-11", "test": "Induction of apoptosis in human MV4-11 cells assessed as early apoptotic cells at 1 uM after 48 hrs by Annexin V/propidium iodide staining based flow cytometry (reference value: 2.76%)", "assay_type": "functional"}, "[24]": {"tested_on": "MV4-11", "test": "Induction of apoptosis in human MV4-11 cells assessed as necrotic cells at 1 uM after 48 hrs by Annexin V/propidium iodide staining based flow cytometry (reference value: 0.06%)", "assay_type": "functional"}, "[25]": {"tested_on": "MV4-11", "test": "Induction of apoptosis in human MV4-11 cells assessed as early apoptotic cells at 10 uM after 48 hrs by Annexin V/propidium iodide staining based flow cytometry (reference value: 2.76%)", "assay_type": "functional"}, "[26]": {"test": "Toxicity in NOD/SCID mouse xenografted with human MOLM13 cells at 1 to 10 mg/kg, po qd for 10 days", "assay_type": "organism-based", "details": "in vivo, 240 h"}, "[27]": {"test": "Toxicity in NOD/SCID mouse xenografted with human MV4-11 cells at 10 mg/kg, po qd for 18 days", "assay_type": "organism-based", "details": "in vivo, 432 h"}, "[28]": {"tested_on": "BaF3", "test": "cells", "details": "Mus musculus, BaF3, 72 h", "description": "Antiproliferative activity against mouse BAF3 cells harboring FLT3-ITD mutant measured after 72 hrs by MTT assay"}, "[29]": {"tested_on": "BaF3", "test": "cells", "details": "Mus musculus, BaF3, 72 h", "remark": "listed apart in the source", "description": "Antiproliferative activity against mouse BAF3 cells harboring FLT3-ITD-F691L mutant measured after 72 hrs by MTT assay"}, "[30]": {"tested_on": "BaF3", "test": "cells", "details": "Mus musculus, BaF3, 72 h", "remark": "listed apart in the source", "description": "Antiproliferative activity against mouse BAF3 cells harboring FLT3-ITD-D835V mutant measured after 72 hrs by MTT assay"}}}
{"smiles": "C=CCn1cc(-c2ccc(NC(=O)Nc3cc(C(C)(C)C)on3)cc2)c2c(N)ncnc21", "values": [{"measurement": "CL/F", "setting": "[1]", "result": 20.3, "unit": "mL/min/kg"}, {"measurement": "Kd", "setting": "[2]", "result": 10.2, "unit": "nM"}, {"measurement": "fold change (FC)", "setting": "[3]", "result": 0}, {"measurement": "fold change (FC)", "setting": "[4]", "result": 0}, {"measurement": "fold change (FC)", "setting": "[5]", "result": 0}, {"measurement": "fold change (FC)", "setting": "[6]", "result": 0}, {"measurement": "fold change (FC)", "setting": "[7]", "result": 0}, {"measurement": "inhibition in vivo at 1 mg/kg", "setting": "[8]", "result": 70.5, "unit": "%"}, {"measurement": "inhibition in vivo at 3 mg/kg", "setting": "[9]", "result": 98.2, "unit": "%"}, {"measurement": "Activity", "setting": "[10]", "result": 53.77, "unit": "%"}, {"measurement": "Activity", "setting": "[11]", "result": 94.62, "unit": "%"}, {"measurement": "Activity", "setting": "[12]", "result": 16.55, "unit": "%"}, {"measurement": "Activity", "setting": "[13]", "result": 2.2, "unit": "%"}, {"measurement": "Activity", "setting": "[14]", "result": 32.51, "unit": "%"}, {"measurement": "viability at 0.001 µM", "setting": "[15]", "result": 85, "unit": "%"}, {"measurement": "Activity", "setting": "[16]", "result": 5.67, "unit": "%"}, {"measurement": "Activity", "setting": "[17]", "result": 1.79, "unit": "%"}, {"measurement": "Activity", "setting": "[18]", "result": 0.12, "unit": "%"}, {"measurement": "Activity", "setting": "[19]", "result": 46.8, "unit": "%"}, {"measurement": "viability at 0.01 µM", "setting": "[20]", "result": 79.3, "unit": "%"}, {"measurement": "Activity", "setting": "[21]", "result": 0.2, "unit": "%"}, {"measurement": "Activity", "setting": "[22]", "result": 0.36, "unit": "%"}, {"measurement": "Activity", "setting": "[23]", "result": 19.9, "unit": "%"}, {"measurement": "Activity", "setting": "[24]", "result": 0.32, "unit": "%"}, {"measurement": "Activity", "setting": "[25]", "result": 13.4, "unit": "%"}, {"measurement": "Activity", "setting": "[26]", "result": "Non-Toxic"}, {"measurement": "Activity", "setting": "[27]", "result": "Non-Toxic"}, {"measurement": "IC50", "setting": "[28]", "result": 0.92, "unit": "nM"}, {"measurement": "IC50", "setting": "[29]", "result": 13, "unit": "nM"}, {"measurement": "IC50", "setting": "[30]", "result": 20.7, "unit": "nM"}]}
